What was measured:
Assay type in all cases: functional, cell-based
[1] = Cytotoxicity against human HL60 cells by MTT assay; conditions: HL-60
[2] = Cytotoxicity against human SMMC7721 cells by MTT assay; conditions: SMMC-7721
A549 = assay: Cytotoxicity against human A549 cells by MTT assay
MCF7 = assay: Cytotoxicity against human MCF7 cells by MTT assay
SW480 = assay: Cytotoxicity against human SW480 cells by MTT assay

| SMILES | IC50 [1] [µM] | IC50 [2] [µM] | IC50 (A549) [µM] | IC50 (MCF7) [µM] | IC50 (SW480) [µM] |
| --- | --- | --- | --- | --- | --- |
| Cc1n(CC(=O)N2CCC3(C)c4ccccc4N(C)C23)c2ccccc2[n+]1Cc1ccc2ccccc2c1 (stereo not given) | 1.49 | 4.34 | 16.7 | 5.09 | 7.36 |
| CN1c2ccccc2C2(C)CCN(C(=O)Cn3c[n+](CC(=O)c4ccc(Br)cc4)c4ccccc43)C12 (stereo not given) | > 20 | > 20 | > 20 | > 20 | > 20 |
| Cc1ccc(C[n+]2c(C)n(CC(=O)N3CCC4(C)c5ccccc5N(Cc5ccccc5)C34)c3ccccc32)cc1 (stereo not given) | 1.25 | 2.97 | 6.63 | 1.98 | 1.62 |
| CN1c2ccccc2C2(C)CCN(C(=O)Cn3c[n+](Cc4ccc5ccccc5c4)c4ccccc43)C12 (stereo not given) | 2.8 | 7.45 | 14.1 | 6.86 | 7.95 |
| CN1c2ccccc2C2(C)CCN(C(=O)Cn3cc[n+](CC(=O)c4ccc(Br)cc4)c3)C12 (stereo not given) | > 20 | > 20 | > 20 | > 20 | > 20 |
| CC12CCN(C(=O)Cn3c[n+](CC(=O)c4ccccc4)c4ccccc43)C1N(Cc1ccccc1)c1ccccc12 (stereo not given) | 5.72 | 14.5 | > 20 | 8.16 | 8.43 |
| COc1ccc(C(=O)C[n+]2cn(CC(=O)N3CCC4(C)c5ccccc5N(Cc5ccccc5)C34)c3cc(C)c(C)cc32)cc1 (stereo not given) | 1.64 | 5.07 | 7.4 | 2.35 | 1.5 |
| COc1ccc(C(=O)C[n+]2cn(CC(=O)N3CCC4(C)c5ccccc5N(C)C34)c3cc(C)c(C)cc32)cc1 (stereo not given) | 6.23 | 7.49 | > 20 | 8.15 | 11.1 |
| Cc1nccn1CC(=O)N1CCC2(C)c3ccccc3N(Cc3ccccc3)C12 (stereo not given) | > 20 | > 20 | > 20 | > 20 | > 20 |
| CN1c2ccccc2C2(C)CCN(C(=O)Cn3cc[n+](CC(=O)c4ccccc4)c3)C12 (stereo not given) | > 20 | > 20 | > 20 | > 20 | > 20 |
| COc1ccc(C(=O)C[n+]2ccn(CC(=O)N3CCC4(C)c5ccccc5N(Cc5ccccc5)C34)c2C)cc1 (stereo not given) | 1.3 | > 20 | > 20 | 10.6 | > 20 |
| Cc1ccc(C[n+]2cn(CC(=O)N3CCC4(C)c5ccccc5N(C)C34)c3ccccc32)cc1 (stereo not given) | 5.13 | > 20 | > 20 | 9.47 | > 20 |
| Cc1n(CC(=O)N2CCC3(C)c4ccccc4N(Cc4ccccc4)C23)cc[n+]1CC(=O)c1ccccc1 (stereo not given) | > 20 | > 20 | > 20 | > 20 | > 20 |
| Cc1ccc(C[n+]2c(C)n(CC(=O)N3CCC4(C)c5ccccc5N(C)C34)c3ccccc32)cc1 (stereo not given) | 2.25 | 8.03 | > 20 | 10.8 | > 20 |
| CC12CCNC1N(Cc1ccccc1)c1ccccc12 (stereo not given) | > 20 | > 20 | > 20 | > 20 | > 20 |
| CN1c2ccccc2C2(C)CCN(C(=O)Cn3cc[n+](CC(=O)c4ccc5ccccc5c4)c3)C12 (stereo not given) | > 20 | > 20 | > 20 | > 20 | > 20 |
| CN1c2ccccc2C2(C)CCN(C(=O)Cn3c[n+](Cc4ccccc4Br)c4ccccc43)C12 (stereo not given) | 5.07 | > 20 | > 20 | 14 | > 20 |
| CC12CCN(C(=O)Cn3c[n+](Cc4ccc(Br)cc4)c4ccccc43)C1N(Cc1ccccc1)c1ccccc12 (stereo not given) | 1.42 | 7.53 | 7.59 | 3.87 | 7.43 |
| Cc1nccn1CC(=O)N1CCC2(C)c3ccccc3N(C)C12 (stereo not given) | > 20 | > 20 | > 20 | > 20 | > 20 |
| Cc1cc2c(cc1C)[n+](CC(=O)c1ccc(Br)cc1)cn2CC(=O)N1CCC2(C)c3ccccc3N(C)C12 (stereo not given) | 7.31 | 8.72 | > 20 | 8.28 | 8.52 |
| Cc1cc2c(cc1C)[n+](CC(=O)c1ccccc1)cn2CC(=O)N1CCC2(C)c3ccccc3N(Cc3ccccc3)C12 (stereo not given) | 1.47 | 5.78 | 6.54 | 3.51 | 7.09 |
| CN1c2ccccc2C2(C)CCN(C(=O)Cn3c[n+](CC(=O)c4ccc5ccccc5c4)c4ccccc43)C12 (stereo not given) | 5.98 | > 20 | > 20 | 11 | 8.56 |
| Cc1n(CC(=O)N2CCC3(C)c4ccccc4N(Cc4ccccc4)C23)c2ccccc2[n+]1Cc1ccccc1Br (stereo not given) | 1.33 | 2.27 | 7.34 | 2.5 | 4.62 |

| SMILES | IC50 [1] [µM] | IC50 [2] [µM] | IC50 (A549) [µM] | IC50 (MCF7) [µM] | IC50 (SW480) [µM] |
| --- | --- | --- | --- | --- | --- |
| Cc1cc2ncn(CC(=O)N3CCC4(C)c5ccccc5N(Cc5ccccc5)C34)c2cc1C (stereo not given) | > 20 | > 20 | > 20 | > 20 | > 20 |
| CN1c2ccccc2C2(C)CCNC12 (stereo not given) | > 20 | > 20 | > 20 | > 20 | > 20 |
| Cc1cc2c(cc1C)[n+](CC(=O)c1ccc3ccccc3c1)cn2CC(=O)N1CCC2(C)c3ccccc3N(C)C12 (stereo not given) | 1.6 | 2.85 | 6.47 | 4.88 | 5.01 |
| Cc1cc2ncn(CC(=O)N3CCC4(C)c5ccccc5N(C)C34)c2cc1C (stereo not given) | > 20 | > 20 | > 20 | > 20 | > 20 |
| CC12CCN(C(=O)Cn3c[n+](CC(=O)c4ccc(Br)cc4)c4ccccc43)C1N(Cc1ccccc1)c1ccccc12 (stereo not given) | 2.93 | 8.43 | 8.07 | 8.15 | 9.18 |
| COc1ccc(C(=O)C[n+]2ccn(CC(=O)N3CCC4(C)c5ccccc5N(C)C34)c2)cc1 (stereo not given) | > 20 | > 20 | > 20 | > 20 | > 20 |
| Cc1ccc(C[n+]2cn(CC(=O)N3CCC4(C)c5ccccc5N(Cc5ccccc5)C34)c3ccccc32)cc1 (stereo not given) | 1.2 | 4.98 | 6.23 | 2.72 | 6.57 |
| COc1ccc(C(=O)C[n+]2c(C)n(CC(=O)N3CCC4(C)c5ccccc5N(C)C34)c3ccccc32)cc1 (stereo not given) | > 20 | > 20 | > 20 | > 20 | > 20 |
| Cc1n(CC(=O)N2CCC3(C)c4ccccc4N(Cc4ccccc4)C23)c2ccccc2[n+]1CC(=O)c1ccc(Br)cc1 (stereo not given) | 4.25 | 5.99 | 9.87 | 7.37 | 8.86 |
| CC12CCN(C(=O)Cn3cnc4ccccc43)C1N(Cc1ccccc1)c1ccccc12 (stereo not given) | > 20 | > 20 | > 20 | > 20 | > 20 |
| CN1c2ccccc2C2(C)CCN(C(=O)Cn3c[n+](CC(=O)c4ccccc4)c4ccccc43)C12 (stereo not given) | > 20 | > 20 | > 20 | > 20 | > 20 |
| CC12CCN(C(=O)Cn3c[n+](Cc4ccccc4Br)c4ccccc43)C1N(Cc1ccccc1)c1ccccc12 (stereo not given) | 1.21 | 4.69 | 6.76 | 2.23 | 6.35 |
| Cc1n(CC(=O)N2CCC3(C)c4ccccc4N(C)C23)c2ccccc2[n+]1Cc1ccccc1Br (stereo not given) | 3.72 | 10.8 | > 20 | 8.95 | > 20 |
| Cc1n(CC(=O)N2CCC3(C)c4ccccc4N(Cc4ccccc4)C23)c2ccccc2[n+]1CC(=O)c1ccccc1 (stereo not given) | 4.64 | 9.28 | 14.7 | 6.35 | 8.31 |
| CC12CCN(C(=O)Cn3c[n+](CC(=O)c4ccc5ccccc5c4)c4ccccc43)C1N(Cc1ccccc1)c1ccccc12 (stereo not given) | 1.64 | 7.62 | 7.4 | 5.13 | 6.88 |
| Cc1cc2c(cc1C)[n+](CC(=O)c1ccc(Br)cc1)cn2CC(=O)N1CCC2(C)c3ccccc3N(Cc3ccccc3)C12 (stereo not given) | 1.55 | 6.22 | 8.01 | 2.78 | 1.68 |
| Cc1n(CC(=O)N2CCC3(C)c4ccccc4N(Cc4ccccc4)C23)c2ccccc2[n+]1Cc1ccc(Br)cc1 (stereo not given) | 1.35 | 5.1 | 7.91 | 2.4 | 6.11 |
| CN1c2ccccc2C2(C)CCN(C(=O)Cn3cnc4ccccc43)C12 (stereo not given) | > 20 | > 20 | > 20 | > 20 | > 20 |
| CN1c2ccccc2C2(C)CCN(C(=O)Cn3c[n+](Cc4ccc(Br)cc4)c4ccccc43)C12 (stereo not given) | 6.96 | > 20 | > 20 | 8.93 | > 20 |
| CN1c2ccccc2C2(C)CCN(C(=O)Cn3cc[n+](Cc4ccc(Br)cc4)c3)C12 (stereo not given) | > 20 | > 20 | > 20 | > 20 | > 20 |
| Cc1ccc(C[n+]2ccn(CC(=O)N3CCC4(C)c5ccccc5N(Cc5ccccc5)C34)c2C)cc1 (stereo not given) | 0.47 | 19.5 | > 20 | 7.26 | 9.71 |
| Cc1nc2ccccc2n1CC(=O)N1CCC2(C)c3ccccc3N(Cc3ccccc3)C12 (stereo not given) | > 20 | > 20 | > 20 | > 20 | > 20 |
| Cc1cc2c(cc1C)[n+](Cc1ccccc1Br)cn2CC(=O)N1CCC2(C)c3ccccc3N(C)C12 (stereo not given) | 1.67 | 5.61 | 12.7 | 6.28 | 7.24 |

Source: ChEMBL document CHEMBL3745696, “Synthesis and cytotoxic activity of novel hexahydropyrrolo[2,3-b]indole imidazolium salts” (Bioorg Med Chem Lett, 2016)
